According to patent publication US7767798B2, “Loganin analogues and a process for the preparation thereof” (priority 2005, dated 2010):
In brackets after ≈: the same amount, converted by molar mass. Where two headings read alike, the source gives them in different places.

What was measured:
[1] = test system: Ovary (PA-1) cancer cell line; test: MTT cytotoxicity assay, PA-1; assay type: cell-based, human; conditions: for IC50: Homo sapiens, read-out: PA-1 IC50
Experimental: (§1) Cytotoxicity testing In-vitro was done by the method of Woerdenberg et al^17. 2×10^3 cells/well were incubated in the 5% CO2, 95% atmosphere and 37° C. in CO2 incubator for 24 h to enable them to adhere properly to the 96 well polysterene microplate (Grenier, Germany). Test compounds dissolved in 100% DMSO (Merck, Germany) in at least five doses were added and left for four hour after which the compound plus media was replaced with fresh media and the cell were incubated for another 48 h in the CO2 incubator at 37° C. […] Then, 10 μL from 5 mg/ml stock of MTT [3-(4,5-dimethylthiazol-2-yl)-2,5-diphenyltetrazolium bromide; Sigma M 2128] was added, and plate were incubated at 37° C. for 4 h. 100 μL of dimethylsulfoxide (DMSO, Merck, Germany) were added to all wells and mixed thoroughly to dissolve the dark blue crystal. After a few minute at room temperature to ensure that all crystal were dissolve, the plate were read on a Spectra Max 190 Microplate Elisa Reader (Molecular Devices Inc., U.S.A), at 570 nm. Plate were normally read within 1 h of adding the DMSO. The experiment was done in triplicate and the inhibitory concentration (IC) values were calculated as; % INHIBITION=[1−OD (570 nm) of sample well/OD (570 nm) of control well]×100. IC50 is the concentration μg/mL required for 50% inhibition of cell growth as compared to that of untreated control.

[2] = test system: Adherent colon (CaCo2) cancer cell line; test: MTT cytotoxicity assay, CaCo2; assay type: cell-based, human; conditions: for IC50: Homo sapiens
Experimental: as §1

[3] = test system: Suspension Colon (COLO-320) cancer cell line; test: MTT cytotoxicity assay, COLO-320; assay type: cell-based, human; conditions: for IC50: Homo sapiens; for times higher activity than vinblastine: COLO-320
Experimental: as §1

[4] = test system: human cancer cell lines (MCF-7, PA-1, WRL, COLO-320, CaCo2); test: MTT cytotoxicity assay, summary over the tested human cancer cell lines; conditions: for IC50: Homo sapiens; for Dosage range IC50: range of IC50 over the tested cell lines (Table 1)
Experimental: as §1

[5] = test system: Liver (WRL) cancer cell line; test: MTT cytotoxicity assay, WRL; assay type: cell-based, human; conditions: for IC50: Homo sapiens, read-out: WRL IC50
Experimental: as §1

[6] = test system: breast (MCF-7) cancer cell line; test: MTT cytotoxicity assay, MCF-7; assay type: cell-based, human; conditions: for IC50: Homo sapiens
Experimental: as §1

[7] = tested human cancer cell lines, comparison with loganin, compound 4 or a neighbouring analogue
[8] = MTT assay, PA-1 ovary cancer cells
[9] = MTT assay, CaCo2 adherent colon cancer cells
[10] = MTT assay, COLO-320 suspension colon cancer cells
[11] = MTT assay, WRL liver cancer cells
[12] = MTT assay, MCF-7 breast cancer cells

Row | Structure (SMILES) | cytotoxic activity in words [4, 7] | PA-1 IC50 [1, 8] | CaCo2 IC50 [2, 9] | COLO-320 IC50 [3, 10] | Dosage range IC50 [4] | WRL IC50 [5, 11] | MCF-7 IC50 [6, 12] | further results
1 | COC(=O)C1=CO[C@@H](O[C@@H]2O[C@H](CO)[C@@H](O)[C@H](O)[C@H]2O)[C@@H]2[C@@H](C)[C@@H](O)C[C@H]12 [Compound 1, loganin] | significant cytotoxic activity |  |  |  |  |  |  | IC50 [1]: 1.45 µg/mL (≈ 3.71 µM); IC50 ([2]; Caco-2, read-out: CaCo2 IC50): 1.28 µg/mL (≈ 3.28 µM); IC50 ([3]; COLO 320, read-out: COLO-320 IC50): 1 µg/mL (≈ 2.56 µM); IC50 ([4]; read-out: Dosage range IC50): 1 to 5 µg/mL (≈ 2.56 to 12.8 µM); IC50 ([4]; read-out: concentration/dose used in vitro MTT assay for IC50, range): 1 to 5 µg/mL (≈ 2.56 to 12.8 µM); IC50 [5]: 1.86 µg/mL (≈ 4.76 µM); IC50 ([6]; MCF7, read-out: MCF-7 IC50): 4.85 µg/mL (≈ 12.4 µM)
2 | COC(=O)C1=CO[C@@H](O[C@@H]2O[C@H](COC(c3ccccc3)(c3ccccc3)c3ccccc3)[C@@H](O)[C@H](O)[C@H]2O)[C@@H]2[C@@H](C)[C@@H](O)C[C@H]12 [Compound 2, 6′-O-trityl loganin] |  | 0.65 µg/mL | 0.56 µg/mL | 0.25 µg/mL | 0.25 to 2.0 µg/mL | 1.86 µg/mL | 1.00 µg/mL | cytotoxic activity in words [4]: enhanced cytotoxic activity
3 | COC(=O)C1=COC(O[C@@H]2O[C@H](COC(c3ccccc3)(c3ccccc3)c3ccccc3)[C@@H](OC(C)=O)[C@H](OC(C)=O)[C@H]2OC(C)=O)C2C1CC(OC(C)=O)C2C (stereo partly drawn) [Compound 3, 2′,3′,4′,7-tetra-O-acetyl-6′-O-trityl loganin] | enhanced cytotoxic activity | 1.20 µg/mL | 3.45 µg/mL | 0.82 µg/mL | 0.80 to 3.5 µg/mL | 2.44 µg/mL | 1.20 µg/mL | 
4 | COC(=O)C1=COC(O[C@@H]2O[C@H](CO)[C@@H](OC(C)=O)[C@H](OC(C)=O)[C@H]2OC(C)=O)C2C1CC(OC(C)=O)C2C (stereo partly drawn) [Compound 4, 2′,3′,4′,7-tetra-O-acetyl loganin] | abolished cytotoxicity |  |  |  |  |  |  | 
5 | CCC(=O)OC[C@H]1O[C@@H](OC2OC=C(C(=O)OC)C3CC(OC(C)=O)C(C)C23)[C@H](OC(C)=O)[C@@H](OC(C)=O)[C@@H]1OC(C)=O (stereo partly drawn) [Compound 5, 2′,3′,4′,7-Tetra-O-acetyl-6′-O-propionylloganin] |  | 1.24 µg/mL | 2.85 µg/mL | 0.85 µg/mL | 0.80 to 3.0 µg/mL | 2.65 µg/mL | 1.88 µg/mL | concentration/dose used in vitro MTT assay for IC50, range ([4]; MCF-7, PA-1, WRL, COLO-320 and CaCo-2): 0.80 to 3.0 µg/mL
6 | CCCCCCCCCCCC(=O)OC[C@H]1O[C@@H](OC2OC=C(C(=O)OC)C3CC(OC(C)=O)C(C)C23)[C@H](OC(C)=O)[C@@H](OC(C)=O)[C@@H]1OC(C)=O (stereo partly drawn) [Compound 6, 2′,3′,4′,7-Tetra-O-acetyl-6′-O-lauroylloganin] |  | 0.15 µg/mL | 0.42 µg/mL | 0.04 µg/mL | 0.04 to 0.85 µg/mL | 0.85 µg/mL | 0.24 µg/mL | times higher activity than vinblastine [3]: 13 times
7 | CCCCCCCCCCCCCC(=O)OC[C@H]1O[C@@H](OC2OC=C(C(=O)OC)C3CC(OC(C)=O)C(C)C23)[C@H](OC(C)=O)[C@@H](OC(C)=O)[C@@H]1OC(C)=O (stereo partly drawn) [Compound 7, 2′,3′,4′,7-Tetra-O-acetyl-6′-O-myristoyl loganin] |  | 6.5 µg/mL |  | 30.00 µg/mL | 6.5 to 59.0 µg/mL | 58.50 µg/mL | 24.60 µg/mL | 
8 | C=CC(=O)OC[C@H]1O[C@@H](OC2OC=C(C(=O)OC)C3CC(OC(C)=O)C(C)C23)[C@H](OC(C)=O)[C@@H](OC(C)=O)[C@@H]1OC(C)=O (stereo partly drawn) [Compound 9, 2′,3′,4′,7-Tetra-O-acetyl-6′-O-acryloyl loganin] | totally abolished the activity |  |  |  |  |  |  | 
9 | COC(=O)C1=COC(O[C@@H]2O[C@H](COC(=O)C=C(C)C)[C@@H](OC(C)=O)[C@H](OC(C)=O)[C@H]2OC(C)=O)C2C1CC(OC(C)=O)C2C (stereo partly drawn) [Compound 10, 2′,3′,4′,7-Tetra-O-acetyl-6′-O-3″,3″-dimethyl acryloylloganin] | significant enhancement of anticancer activity | 0.65 µg/mL | 0.80 µg/mL | 0.08 µg/mL | 0.08 to 1.20 µg/mL | 1.20 µg/mL | 1.00 µg/mL | 
10 | COC(=O)C1=COC(O[C@@H]2O[C@H](COC(=O)c3cc(OC)c(OC)c(OC)c3)[C@@H](OC(C)=O)[C@H](OC(C)=O)[C@H]2OC(C)=O)C2C1CC(OC(C)=O)C2C (stereo partly drawn) [Compound 11, 2′,3′,4′,7-Tetra-O-acetyl-6′-O-3,4,5-trimethoxy benzoyl loganin] | significant enhancement in the cytotoxicity | 0.10 µg/mL | 0.06 µg/mL | 0.04 µg/mL | 0.044 to 3.54 µg/mL | 0.54 µg/mL | 0.25 µg/mL | times higher activity than vinblastine ([2]; CaCO2): 8 times; times higher activity than vinblastine [3]: 13 times
11 | COC(=O)C1=COC(O[C@@H]2O[C@H](COC(=O)c3cccc([N+](=O)[O-])c3)[C@@H](OC(C)=O)[C@H](OC(C)=O)[C@H]2OC(C)=O)C2C1CC(OC(C)=O)C2C (stereo partly drawn) [Compound 12, 2′,3′,4′,7-Tetra-O-acetyl-6′-O-(3′″)-nitrobenzoyl loganin] | slightly decreased the activity | 0.85 µg/mL | 1.00 µg/mL | 0.44 µg/mL | 0.44 to 3.20 µg/mL | 3.20 µg/mL | 1.25 µg/mL | 
12 | CC[C@]1(O)C[C@@H]2CN(CCc3c([nH]c4ccccc34)[C@@](C(=O)OC)(c3cc4c(cc3OC)N(C)[C@H]3[C@@](O)(C(=O)OC)[C@H](OC(C)=O)[C@]5(CC)C=CCN6CC[C@]43[C@@H]65)C2)C1 [Vinblastine, vinblastine, reference compound] |  |  |  |  |  |  |  | IC50 [1, 8]: 0.025 µg/mL (≈ 0.0308 µM); IC50 ([2]; Caco-2, MTT assay, CaCo2 adherent colon cancer cells, read-out: CaCo2 IC50): 0.46 µg/mL (≈ 0.567 µM); IC50 ([3]; MTT assay, COLO-320 suspension colon cancer cells, read-out: COLO-320 IC50): 0.52 µg/mL (≈ 0.641 µM); IC50 ([4]; read-out: Dosage range IC50): 0.02 to 1.45 µg/mL (≈ 0.0247 to 1.79 µM); IC50 [5, 11]: 1.45 µg/mL (≈ 1.79 µM); IC50 ([6]; MCF7, MTT assay, MCF-7 breast cancer cells, read-out: MCF-7 IC50): 0.02 µg/mL (≈ 0.0247 µM)
